{"source": "paper PMC8523698", "about": "“Preclinical characterization of an intravenous coronavirus 3CL protease inhibitor for the potential treatment of COVID19” (Nature Communications, 2021)", "key": {"[1]": {"test": "Secondary/off-target pharmacology panel (Eurofins Cerep)", "details": "assessed at 100 µM"}, "BCRP": {"target": "BCRP (Homo sapiens, UniProt Q9UNQ0)", "sequence (Q9UNQ0 whole entry)": "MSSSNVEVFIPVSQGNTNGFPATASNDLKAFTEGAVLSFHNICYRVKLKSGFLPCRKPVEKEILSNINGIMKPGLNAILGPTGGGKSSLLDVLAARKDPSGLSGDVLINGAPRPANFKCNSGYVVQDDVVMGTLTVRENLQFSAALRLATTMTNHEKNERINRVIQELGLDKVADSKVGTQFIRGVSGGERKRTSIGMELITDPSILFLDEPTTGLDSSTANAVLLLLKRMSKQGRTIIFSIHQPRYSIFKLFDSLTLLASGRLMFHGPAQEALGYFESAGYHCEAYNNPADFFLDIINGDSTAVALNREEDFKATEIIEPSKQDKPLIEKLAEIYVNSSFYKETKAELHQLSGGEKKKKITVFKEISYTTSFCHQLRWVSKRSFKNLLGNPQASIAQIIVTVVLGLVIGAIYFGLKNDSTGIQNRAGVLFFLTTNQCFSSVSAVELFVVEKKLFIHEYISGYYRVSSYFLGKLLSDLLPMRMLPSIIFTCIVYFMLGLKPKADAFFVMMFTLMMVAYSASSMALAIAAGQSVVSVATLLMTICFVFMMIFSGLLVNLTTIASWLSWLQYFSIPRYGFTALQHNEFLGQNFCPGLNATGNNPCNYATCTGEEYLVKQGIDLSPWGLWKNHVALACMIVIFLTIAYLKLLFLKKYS", "test": "Transporter inhibition using membrane vesicles", "details": "IC50, Rosuvastatin (0.2 µM)"}, "[2]": {"test": "Human blood hemocompatibility (hemolysis, flocculation)"}, "CYP2C9": {"target": "CYP2C9 (Homo sapiens, UniProt P11712)", "sequence (P11712 whole entry)": "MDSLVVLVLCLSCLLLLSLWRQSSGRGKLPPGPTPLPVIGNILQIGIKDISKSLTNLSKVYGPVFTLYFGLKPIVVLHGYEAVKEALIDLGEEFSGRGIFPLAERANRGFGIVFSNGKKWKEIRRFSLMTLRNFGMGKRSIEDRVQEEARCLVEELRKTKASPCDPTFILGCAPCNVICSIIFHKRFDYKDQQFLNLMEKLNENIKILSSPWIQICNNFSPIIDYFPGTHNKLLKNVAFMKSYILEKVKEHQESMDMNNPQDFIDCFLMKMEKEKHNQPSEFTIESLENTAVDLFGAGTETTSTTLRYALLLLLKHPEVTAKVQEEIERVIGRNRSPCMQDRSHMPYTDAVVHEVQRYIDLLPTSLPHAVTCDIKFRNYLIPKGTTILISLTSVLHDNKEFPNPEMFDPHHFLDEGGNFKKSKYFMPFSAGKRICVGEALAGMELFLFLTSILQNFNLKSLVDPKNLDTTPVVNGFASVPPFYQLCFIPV", "test": "Reversible CYP inhibition in human liver microsomes", "details": "for activity at 0.01 µM / activity at 0.158 µM / activity at 0.398 µM / activity at 1 µM / activity at 15.8 µM / activity at 39.8 µM / activity at 100 µM: human, microsomes, pH 7.4, Percent of Control Activity"}, "[3]": {"test": "Plasma protein binding by equilibrium dialysis", "details": "monkey plasma, 3.44 uM; for fraction unbound at 6 h, 3.44 uM: plasma"}, "CYP3A4/5": {"system": "CYP3A4/5", "test": "Time-dependent inhibition of CYP enzymes in human liver microsomes", "details": "pooled HLM"}, "[4]": {"test": "Plasma protein binding by equilibrium dialysis", "details": "human plasma; for fraction unbound at 6 h, 3.44 uM / fraction unbound at 6 h: human, plasma"}, "[5]": {"test": "In vitro micronucleus formation", "type": "cell-based"}, "OATP1B1": {"target": "T1, OATP1B1 (Homo sapiens, UniProt Q9Y6L6)", "T1 sequence (Q9Y6L6 1-691)": "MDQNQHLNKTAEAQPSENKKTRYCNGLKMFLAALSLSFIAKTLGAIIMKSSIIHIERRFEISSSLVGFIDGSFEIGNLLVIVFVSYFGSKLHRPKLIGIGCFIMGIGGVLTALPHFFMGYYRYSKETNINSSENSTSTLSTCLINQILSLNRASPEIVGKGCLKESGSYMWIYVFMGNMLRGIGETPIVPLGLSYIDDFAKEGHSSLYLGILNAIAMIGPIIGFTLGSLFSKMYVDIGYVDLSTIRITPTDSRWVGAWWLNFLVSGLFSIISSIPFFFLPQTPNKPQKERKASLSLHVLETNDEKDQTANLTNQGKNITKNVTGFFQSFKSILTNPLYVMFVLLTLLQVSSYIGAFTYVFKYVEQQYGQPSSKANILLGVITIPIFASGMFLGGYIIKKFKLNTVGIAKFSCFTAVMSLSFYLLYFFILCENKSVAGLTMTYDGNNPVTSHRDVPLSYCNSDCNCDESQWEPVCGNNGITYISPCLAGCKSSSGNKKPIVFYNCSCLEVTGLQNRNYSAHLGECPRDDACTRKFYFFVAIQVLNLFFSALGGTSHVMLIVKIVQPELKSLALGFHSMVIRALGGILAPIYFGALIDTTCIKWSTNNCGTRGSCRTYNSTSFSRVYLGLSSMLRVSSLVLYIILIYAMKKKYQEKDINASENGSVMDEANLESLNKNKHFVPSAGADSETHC", "test": "Transporter inhibition using transfected HEK293 cells", "details": "IC50, Rosuvastatin (0.5 µM)"}, "MATE2K": {"target": "T2, MATE2K (Homo sapiens, UniProt Q86VL8)", "T2 construct": "expressed in transfected cells; host or cells: HEK293", "T2 sequence (Q86VL8 1-566 isoform Q86VL8-3)": "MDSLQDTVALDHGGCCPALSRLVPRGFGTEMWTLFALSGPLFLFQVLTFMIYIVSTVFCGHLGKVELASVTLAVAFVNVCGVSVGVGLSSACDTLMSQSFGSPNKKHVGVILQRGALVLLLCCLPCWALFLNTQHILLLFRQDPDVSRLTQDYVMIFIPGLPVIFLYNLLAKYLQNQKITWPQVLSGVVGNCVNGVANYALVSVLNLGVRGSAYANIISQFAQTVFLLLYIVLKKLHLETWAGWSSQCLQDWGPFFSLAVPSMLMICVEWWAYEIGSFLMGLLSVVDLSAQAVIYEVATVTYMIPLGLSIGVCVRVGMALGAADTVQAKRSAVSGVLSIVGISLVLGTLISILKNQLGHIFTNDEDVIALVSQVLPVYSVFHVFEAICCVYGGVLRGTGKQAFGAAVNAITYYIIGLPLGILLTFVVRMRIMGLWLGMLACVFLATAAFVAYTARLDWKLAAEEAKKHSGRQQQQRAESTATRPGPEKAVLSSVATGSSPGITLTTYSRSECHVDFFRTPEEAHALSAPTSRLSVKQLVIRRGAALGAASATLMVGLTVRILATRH", "test": "Transporter inhibition using transfected HEK293 cells", "type": "in vitro ADME", "details": "IC50, [14C]Metformin (20 µM)", "description": "For the inhibition studies, HEK293 cells were washed three times with warm transport buffer (Hanks’ balanced salt solution with 20 mM 4-(2-Hydroxyethyl) piperazine-1-ethanesulfonic acid, pH 7.4) followed by incubation with test compounds containing probe substrates: 10 or 20 µM [^14C]-metformin (OCT1, OCT2, MATE1, MATE2K), 0.5 µM [^3H] para-aminohippuric acid (OAT1), 0.1 µM [^3H] estrone-3-sulfate (OAT3) or 0.5 µM rosuvastatin (OATP1B1/1B3). Uptake was terminated by washing cells at least three times with ice-cold transport buffer and then lysing with 0.2 mL of scintillation fluid or 0.225 mL of methanol containing internal standard. For radiolabeled compounds, radioactivity in each sample was quantified by measurement on MicroBeta (Perkin Elmer). For rosuvastatin, cell extracts were dried down under nitrogen and reconstituted in 50:50 (v:v) methanol:water prior to injection onto a LC-MS/MS system. The total cellular protein content was determined by using a BCA Protein Assay Kit (Pierce Biotechnology) following the manufacturer’s protocol. Uptake ratio was then derived as a ratio of accumulation in transfected cells to accumulation in wild-type cells. The half-maximal inhibitory concentration (IC50) for each transporter was calculated in GraphPad Prism."}, "hERG channel": {"target": "hERG channel (Homo sapiens, UniProt Q12809)", "sequence (Q12809 whole entry)": "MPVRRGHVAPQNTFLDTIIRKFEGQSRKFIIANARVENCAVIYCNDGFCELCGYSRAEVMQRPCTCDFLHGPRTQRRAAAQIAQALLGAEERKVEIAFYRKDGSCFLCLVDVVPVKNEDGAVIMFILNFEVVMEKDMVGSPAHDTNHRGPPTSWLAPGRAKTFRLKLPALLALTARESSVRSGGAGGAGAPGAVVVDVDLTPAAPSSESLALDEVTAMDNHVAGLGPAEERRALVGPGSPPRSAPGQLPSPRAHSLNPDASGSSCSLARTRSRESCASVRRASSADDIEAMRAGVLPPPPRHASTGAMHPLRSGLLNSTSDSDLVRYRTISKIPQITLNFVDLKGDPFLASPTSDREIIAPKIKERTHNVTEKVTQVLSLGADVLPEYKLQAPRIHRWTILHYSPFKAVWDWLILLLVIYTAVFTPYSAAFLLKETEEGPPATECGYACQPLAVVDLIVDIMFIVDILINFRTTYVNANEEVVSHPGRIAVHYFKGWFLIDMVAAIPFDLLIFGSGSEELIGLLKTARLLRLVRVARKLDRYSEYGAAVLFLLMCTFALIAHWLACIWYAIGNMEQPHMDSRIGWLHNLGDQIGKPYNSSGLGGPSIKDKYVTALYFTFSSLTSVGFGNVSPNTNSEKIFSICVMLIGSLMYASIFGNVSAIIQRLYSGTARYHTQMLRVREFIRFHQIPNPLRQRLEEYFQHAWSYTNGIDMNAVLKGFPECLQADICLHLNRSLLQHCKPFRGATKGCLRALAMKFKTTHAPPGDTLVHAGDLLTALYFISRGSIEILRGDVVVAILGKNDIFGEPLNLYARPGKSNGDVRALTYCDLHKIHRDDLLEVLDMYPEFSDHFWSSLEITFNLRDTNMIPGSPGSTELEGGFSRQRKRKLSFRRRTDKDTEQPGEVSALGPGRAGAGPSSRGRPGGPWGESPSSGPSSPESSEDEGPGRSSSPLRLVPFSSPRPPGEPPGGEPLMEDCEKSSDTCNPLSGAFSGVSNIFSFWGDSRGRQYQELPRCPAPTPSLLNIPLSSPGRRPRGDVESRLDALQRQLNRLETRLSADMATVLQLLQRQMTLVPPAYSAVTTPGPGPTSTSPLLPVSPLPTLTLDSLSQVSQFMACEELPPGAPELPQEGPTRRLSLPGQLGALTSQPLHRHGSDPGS", "test": "hERG potassium channel current assay"}}, "note": "Values joined by “and” are separate entries in the source; they are usually repeats but may differ in a detail not shown here. Equal entries are not always repeated. Where two headings read alike, the source gives them in different places.", "data": [{"smiles": "COc1cccc2[nH]c(C(=O)N[C@@H](CC(C)C)C(=O)N[C@@H](C[C@@H]3CCNC3=O)C(=O)COP(=O)(O)O)cc12", "note": "[PF-07304814]", "values": [{"measurement": "secondary (off-target) pharmacology", "setting": "[1]", "result": "minimal potential for secondary (off-target) pharmacology"}, {"measurement": "IC50", "setting": "BCRP", "result": "238 µM and > 130 µM"}, {"measurement": "hemolysis or flocculation/turbidity parameters", "setting": "[2]", "result": "no effect on hemolysis or flocculation/turbidity parameters"}, {"measurement": "IC50", "setting": "CYP2C9", "result": "> 100", "unit": "µM"}, {"measurement": "Percent of Control Activity", "setting": "CYP2C9; CYP 2C9, 0.01 µM, 30-Minute Preincubation, 0.01 µM", "result": "99.6% and 105.4%"}, {"measurement": "Percent of Control Activity", "setting": "CYP2C9; CYP 2C9, 0.01 µM, Zero-Minute Preincubation, 0.01 µM", "result": "102.7% and 88.8%"}, {"measurement": "Percent of Control Activity", "setting": "CYP2C9; CYP 2C9, 0.158 µM, 30-Minute Preincubation, 0.158 µM", "result": "97.3% and 103.8%"}, {"measurement": "Percent of Control Activity", "setting": "CYP2C9; CYP 2C9, 0.158 µM, Zero-Minute Preincubation, 0.158 µM", "result": "103.7% and 96.2%"}, {"measurement": "Percent of Control Activity", "setting": "CYP2C9; CYP 2C9, 0.398 µM, 30-Minute Preincubation, 0.398 µM", "result": 96.2, "unit": "%"}, {"measurement": "Percent of Control Activity", "setting": "CYP2C9; CYP 2C9, 0.398 µM, Zero-Minute Preincubation, 0.398 µM", "result": "103.2% and 91.4%"}, {"measurement": "Percent of Control Activity", "setting": "CYP2C9; CYP 2C9, 1 µM, 30-Minute Preincubation, 1 µM", "result": "98.0% and 100.0%"}, {"measurement": "Percent of Control Activity", "setting": "CYP2C9; CYP 2C9, 1 µM, Zero-Minute Preincubation, 1 µM", "result": 88.9, "unit": "%"}, {"measurement": "Percent of Control Activity", "setting": "CYP2C9; CYP 2C9, 15.8 µM, 30-Minute Preincubation, 15.8 µM", "result": "97.7% and 102.2%"}, {"measurement": "Percent of Control Activity", "setting": "CYP2C9; CYP 2C9, 15.8 µM, Zero-Minute Preincubation, 15.8 µM", "result": "104.1% and 92.6%"}, {"measurement": "Percent of Control Activity", "setting": "CYP2C9; CYP 2C9, 39.8 µM, 30-Minute Preincubation, 39.8 µM", "result": "98.6% and 102.8%"}, {"measurement": "Percent of Control Activity", "setting": "CYP2C9; CYP 2C9, 39.8 µM, Zero-Minute Preincubation, 39.8 µM", "result": "101.8% and 92.4%"}, {"measurement": "Percent of Control Activity", "setting": "CYP2C9; CYP 2C9, 100 µM, 30-Minute Preincubation, 100 µM", "result": "97.1% and 95.4%"}, {"measurement": "Percent of Control Activity", "setting": "CYP2C9; CYP 2C9, 100 µM, Zero-Minute Preincubation, 100 µM", "result": 91.7, "unit": "%"}, {"measurement": "IC50", "setting": "CYP2C9; Diclofenac 4′-hydroxylation, T30", "result": "> 100", "unit": "µM"}, {"measurement": "activity at 0.01 µM", "setting": "CYP2C9; CYP 2C9, 0.01 µM, 30-Minute Preincubation", "result": 100, "unit": "%"}, {"measurement": "activity at 0.01 µM", "setting": "CYP2C9; CYP 2C9, 0.01 µM, Zero-Minute Preincubation", "result": 98.2, "unit": "%"}, {"measurement": "activity at 0.158 µM", "setting": "CYP2C9; CYP 2C9, 0.158 µM, 30-Minute Preincubation", "result": 98.3, "unit": "%"}, {"measurement": "activity at 0.158 µM", "setting": "CYP2C9; CYP 2C9, 0.158 µM, Zero-Minute Preincubation", "result": 103, "unit": "%"}, {"measurement": "activity at 0.398 µM", "setting": "CYP2C9; CYP 2C9, 0.398 µM, 30-Minute Preincubation", "result": 106, "unit": "%"}, {"measurement": "activity at 0.398 µM", "setting": "CYP2C9; CYP 2C9, 0.398 µM, Zero-Minute Preincubation", "result": 102, "unit": "%"}, {"measurement": "activity at 1 µM", "setting": "CYP2C9; CYP 2C9, 1 µM, 30-Minute Preincubation", "result": 100, "unit": "%"}, {"measurement": "activity at 1 µM", "setting": "CYP2C9; CYP 2C9, 1 µM, Zero-Minute Preincubation", "result": 100, "unit": "%"}, {"measurement": "activity at 15.8 µM", "setting": "CYP2C9; CYP 2C9, 15.8 µM, 30-Minute Preincubation", "result": 98.8, "unit": "%"}, {"measurement": "activity at 15.8 µM", "setting": "CYP2C9; CYP 2C9, 15.8 µM, Zero-Minute Preincubation", "result": 106, "unit": "%"}, {"measurement": "activity at 39.8 µM", "setting": "CYP2C9; CYP 2C9, 39.8 µM, 30-Minute Preincubation", "result": 101, "unit": "%"}, {"measurement": "activity at 39.8 µM", "setting": "CYP2C9; CYP 2C9, 39.8 µM, Zero-Minute Preincubation", "result": 105, "unit": "%"}, {"measurement": "activity at 100 µM", "setting": "CYP2C9; CYP 2C9, 100 µM, 30-Minute Preincubation", "result": 96.5, "unit": "%"}, {"measurement": "activity at 100 µM", "setting": "CYP2C9; CYP 2C9, 100 µM, Zero-Minute Preincubation", "result": 101, "unit": "%"}, {"measurement": "fraction unbound at 6 h, 3.44 uM", "setting": "[3]; both, Cynomologous, cynomolgus monkey, pH 7.4, Individual fraction unbound, Cynomologous, male and female, Day 1", "result": 0.388}, {"measurement": "fraction unbound at 6 h, 3.44 uM", "setting": "[3]; both, Cynomologous, cynomolgus monkey, pH 7.4, Individual fraction unbound, Cynomologous, male and female, Day 2", "result": 0.356}, {"measurement": "fraction unbound at 6 h, 3.44 uM", "setting": "[3]; both, Cynomologous, cynomolgus monkey, pH 7.4, Individual fraction unbound, Cynomologous, male and female, Day 3", "result": 0.442}, {"measurement": "Individual fraction unbound", "setting": "[3]; Cynomologous, male and female, Day 1", "result": "0.366 and 0.39 and 0.393"}, {"measurement": "Individual fraction unbound", "setting": "[3]; Cynomologous, male and female, Day 2", "result": "0.318 and 0.315 and 0.319"}, {"measurement": "Individual fraction unbound", "setting": "[3]; Cynomologous, male and female, Day 3", "result": "0.37 and 0.354 and 0.347"}, {"measurement": "fraction unbound at 6 h, 3.44 uM", "setting": "[3]; monkey, pH 7.4, fraction unbound Geomean, n=12", "result": 0.361}, {"measurement": "time-dependent inhibition (TDI) signal", "setting": "CYP3A4/5", "result": "no evidence of TDI"}, {"measurement": "Individual fraction unbound", "setting": "[4]; 3.44 uM, replicates Day 1-3", "result": "0.199 and 0.194 and 0.181 and 0.192 and 0.178 and 0.182 and 0.198 and 0.168 and 0.191 and 0.180 and 0.167"}, {"measurement": "fraction unbound at 6 h, 3.44 uM", "setting": "[4]; pH 7.4, Fraction unbound, Geomean, 3.44 uM, n 12", "result": 0.184}, {"measurement": "fraction unbound at 6 h, 3.44 uM", "setting": "[4]; pH 7.4, Individual fraction unbound, 3.44 uM, replicates Day 1-3", "result": 0.186}, {"measurement": "fraction unbound at 6 h", "setting": "[4]; pH 7.4, Measured plasma fu / Human plasma fu", "result": 0.184}, {"measurement": "fraction unbound at 6 h", "setting": "[4]; pH 7.4, Unbound fraction fu (%CV)", "result": 0.184}, {"measurement": "fraction unbound at 6 h, 3.44 uM", "setting": "[4]; pH 7.4, fraction unbound Geomean, 3.44 uM, n=12", "result": 0.184}, {"measurement": "micronuclei formation", "setting": "[5]", "result": "did not induce micronuclei formation"}, {"measurement": "IC50", "setting": "OATP1B1", "result": "134 µM and > 130 µM"}, {"measurement": "IC50", "setting": "MATE2K", "result": "> 300", "unit": "µM"}, {"measurement": "hERG margin in reference to projected unbound human Cmax", "setting": "hERG channel; 300 µM vs projected Cmax at projected human efficacious dose", "result": "1,770 fold"}, {"measurement": "concentration up to which hERG current amplitude was not inhibited", "setting": "hERG channel; human", "result": 300, "unit": "µM"}]}]}
